Source: patent US9598423B2 (BRISTOL-MYERS SQUIBB COMPANY, priority 2013, dated 2017)

How the values were obtained:
[1] = biological target: CK1δ (Homo sapiens (Human), UniProt P48730); assay: CK1δ kinase assay (Caliper LABCHIP electrophoretic separation of fluoresceinated peptide substrate and product); type: biochemical; settings: 200 pM CK1δ, 50 μM ATP, 1.5 μM peptide substrate, 22 hours at room temperature; read-out: CK1δ (IC50)
In short: (§1)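 Eleven-concentration compound series in kinase reactions run for 22 hours at room temperature. Terminated with EDTA, with product conversion read by electrophoretic separation. Non-linear regression gave IC50.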

[2] = biological target: CK1ε (Homo sapiens (Human), UniProt P49674); assay: CK1ε kinase assay (Caliper LABCHIP electrophoretic separation of fluoresceinated peptide substrate and product); type: biochemical; settings: 200 pM CK1ε, 50 μM ATP, 1.5 μM peptide substrate, 22 hours at room temperature; read-out: CK1ε (IC50)
In short: as §1

Chain of CK1δ (P48730 whole entry): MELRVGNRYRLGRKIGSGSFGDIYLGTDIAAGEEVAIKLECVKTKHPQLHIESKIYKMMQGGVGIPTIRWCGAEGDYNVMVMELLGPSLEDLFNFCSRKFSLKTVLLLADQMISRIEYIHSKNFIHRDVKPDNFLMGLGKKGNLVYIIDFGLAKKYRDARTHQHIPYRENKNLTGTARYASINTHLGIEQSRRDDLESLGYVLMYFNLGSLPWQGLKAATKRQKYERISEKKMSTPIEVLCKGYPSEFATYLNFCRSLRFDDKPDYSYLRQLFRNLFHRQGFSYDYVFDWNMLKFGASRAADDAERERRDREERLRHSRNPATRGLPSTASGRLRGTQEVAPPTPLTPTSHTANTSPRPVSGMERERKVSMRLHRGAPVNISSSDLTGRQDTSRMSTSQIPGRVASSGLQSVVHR
Chain of CK1ε (P49674 whole entry): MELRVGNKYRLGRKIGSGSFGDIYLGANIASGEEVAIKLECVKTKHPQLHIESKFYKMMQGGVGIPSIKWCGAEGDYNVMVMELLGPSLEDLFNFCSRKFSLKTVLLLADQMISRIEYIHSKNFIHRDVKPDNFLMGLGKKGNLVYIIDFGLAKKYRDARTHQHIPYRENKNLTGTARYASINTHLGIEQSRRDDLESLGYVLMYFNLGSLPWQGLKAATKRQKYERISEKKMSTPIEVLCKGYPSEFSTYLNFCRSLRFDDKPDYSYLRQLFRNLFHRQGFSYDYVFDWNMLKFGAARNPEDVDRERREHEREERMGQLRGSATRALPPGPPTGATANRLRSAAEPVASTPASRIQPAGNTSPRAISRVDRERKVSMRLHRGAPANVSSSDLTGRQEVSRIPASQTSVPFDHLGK

SMILES	IC50 [1] [nM]	IC50 [2] [nM]
N#Cc1ccc(NC(=O)N2CCn3nc(-c4cc(F)cc(Cl)c4)c(C(N)=O)c3C2)cc1Cl [Compound 222, N^5-(3-Chloro-4-cyanophenyl)-2-(3-chloro-5-fluorophenyl)-6,7-dihydropyrazolo[1,5-a] pyrazine-3,5(4H)-dicarboxamide]	0.01 to 10	0.01 to 10
N#Cc1ccc(NC(=O)N2CCn3nc(-c4ccc(F)c(F)c4)c(C(N)=O)c3C2)cc1F [Compound 236, N^5-(4-Cyano-3-fluorophenyl)-2-(3,4-difluorophenyl)-6,7-dihydropyrazolo[1,5-a] pyrazine-3,5(4H)-dicarboxamide]	0.01 to 10	0.01 to 10
Cc1ccc(-c2nn3c(c2C(N)=O)CN(C(=O)Nc2ccc(C#N)c(Cl)c2)CC3)cc1Cl [Compound 256, N^5-(3-Chloro-4-cyanophenyl)-2-(3-chloro-4-methylphenyl)-6,7-dihydropyrazolo[1,5-a] pyrazine-3,5(4H)-dicarboxamide]	0.01 to 10	0.01 to 10
N#Cc1ccc(NC(=O)N2Cc3c(C(N)=O)c(-c4ccc(F)c(Cl)c4)nn3CC2C(F)(F)F)cc1 (single isomer, unassigned) [Compound 335, 2-(3-Chloro-4-fluorophenyl)-N^5-(4-cyanophenyl)-6-(trifluoromethyl)-6,7-dihydropyrazolo[1,5-a]pyrazine-3,5(4H)-dicarboxamide]	100 to 2000	100 to 2000
Cn1cc2c(F)cc(-c3nn4c(c3C(N)=O)CN(C(=O)Nc3ccc(C#N)cc3)CC4)cc2n1 [Compound 328]	10 to 100	10 to 100
Cn1ncc2c(F)cc(-c3nn4c(c3C(N)=O)CN(C(=O)Nc3ccc(C#N)cc3)CC4)cc21 [Compound 326, N^5-(4-Cyanophenyl)-2-(4-fluoro-1-methyl-1H-indazol-6-yl)-6,7-dihydropyrazolo[1,5-a]pyrazine-3,5(4H)-dicarboxamide]	0.01 to 10	0.01 to 10
N#Cc1ccc(NC(=O)N2CCn3nc(-c4cccc(Cl)c4Cl)c(C(N)=O)c3C2)cc1 [Compound 287, N^5-(4-Cyanophenyl)-2-(2,3-dichlorophenyl)-6,7-dihydropyrazolo[1,5-a] pyrazine-3,5(4H)-dicarboxamide]	10 to 100	0.01 to 10
NC(=O)c1c(-c2ccc(F)c(Cl)c2)nn2c1CN(C(=O)Nc1ccc(C(F)(F)F)c(Cl)c1)CC2 [Compound 176, N^5-(3-Chloro-4-(trifluoromethyl)phenyl)-2-(3-chloro-4-fluorophenyl)-6,7-dihydropyrazolo[1,5-a] pyrazine-3,5(4H)-dicarboxamide]	0.01 to 10	0.01 to 10
CS(=O)(=O)Nc1cccc(-c2nn3c(c2C(N)=O)CN(C(=O)Nc2ccc(C#N)cc2)CC3)c1 [Compound 274, N^5-(4-Cyanophenyl)-2-(3-(methylsulfonamido)phenyl)-6,7-dihydropyrazolo[1,5-a] pyrazine-3,5(4H)-dicarboxamide]	100 to 2000	100 to 2000
Cn1ncc2cc(-c3nn4c(c3C(N)=O)CN(C(=O)Nc3ccc(C#N)cc3)CC4)cc(Cl)c21 [Compound 318, 2-(7-Chloro-1-methyl-1H-indazol-5-yl)-N^5-(4-cyanophenyl)-6,7-dihydropyrazolo[1,5-a]pyrazine-3,5(4H)-dicarboxamide]	0.01 to 10	0.01 to 10
Cc1cc(NC(=O)N2CCn3nc(-c4cc(F)cc(Cl)c4)c(C(N)=O)c3C2)ccc1C#N [Compound 221, 2-(3-Chloro-5-fluorophenyl)-N^5-(4-cyano-3-methylphenyl)-6,7-dihydropyrazolo[1,5-a]pyrazine-3,5(4H)-dicarboxamide]	0.01 to 10	0.01 to 10
CC1Cn2nc(-c3cccc(Cl)c3)c(C(N)=O)c2CN1C(=O)Nc1ccc(C#N)cc1 (single isomer, unassigned) [Compound 332, 2-(3-Chlorophenyl)-N^5-(4-cyanophenyl)-6-methyl-6,7-dihydropyrazolo[1,5-a]pyrazine-3,5(4H)-dicarboxamide]	0.01 to 10	0.01 to 10
N#Cc1ccc(NC(=O)N2Cc3c(C(N)=O)c(-c4ccc(F)c(Cl)c4)nn3C3(C2)CC(F)(F)C3)cc1 [Compound A36, 2′-(3-Chloro-4-fluorophenyl)-N^5′-(4-cyanophenyl)-3,3-difluoro-4′H-spiro[cyclobutane-1,7′-pyrazolo[1,5-a]pyrazine]-3′,5′(6′H)-dicarboxamide]	0.01 to 10	0.01 to 10
NC(=O)c1c(-c2ccc(F)c(Cl)c2)nn2c1CN(C(=O)Nc1ccc(F)c(F)c1)CC2 [Compound 183, 2-(3-Chloro-4-fluorophenyl)-N^5-(3,4-difluorophenyl)-6,7-dihydropyrazolo[1,5-a] pyrazine-3,5(4H)-dicarboxamide]	0.01 to 10	0.01 to 10
CS(=O)(=O)c1cccc(-c2nn3c(c2C(N)=O)CN(C(=O)Nc2ccc(C#N)cc2)CC3)c1 [Compound 286, N^5-(4-Cyanophenyl)-2-(3-(methylsulfonyl)phenyl)-6,7-dihydropyrazolo[1,5-a] pyrazine-3,5(4H)-dicarboxamide]	100 to 2000	100 to 2000
N#Cc1ccc(NC(=O)N2CCn3nc(-c4ccc(F)c(Cl)c4)c(C(N)=O)c3C2)cc1N1CCOCC1 [Compound A49, 2-(3-Chloro-4-fluorophenyl)-N^5-(4-cyano-3-morpholinophenyl)-6,7-dihydropyrazolo[1,5-a]pyrazine-3,5(4H)-dicarboxamide]	0.01 to 10	0.01 to 10
N#Cc1ccc(NC(=O)N2Cc3c(C(N)=O)c(-c4ccc(F)c(Cl)c4)nn3CC2C(F)(F)F)cc1 (single isomer, unassigned) [Compound 336, 2-(3-Chloro-4-fluorophenyl)-N^5-(4-cyanophenyl)-6-(trifluoromethyl)-6,7-dihydropyrazolo[1,5-a]pyrazine-3,5(4H)-dicarboxamide]	0.01 to 10	0.01 to 10
N#Cc1ccc(NC(=O)N2CCn3nc(-c4ccc(F)c(F)c4)c(C(N)=O)c3C2)cc1 [Compound 291, N^5-(4-Cyanophenyl)-2-(3,4-difluorophenyl)-6,7-dihydropyrazolo[1,5-a] pyrazine-3,5(4H)-dicarboxamide]	0.01 to 10	0.01 to 10
N#Cc1ccc(NC(=O)N2CCn3nc(-c4ccc(F)c(Cl)c4)c(C(N)=O)c3C2)cc1C1CC1 [Compound A50, 2-(3-Chloro-4-fluorophenyl)-N^5-(4-cyano-3-cyclopropylphenyl)-6,7-dihydropyrazolo[1,5-a]pyrazine-3,5(4H)-dicarboxamide]	0.01 to 10	0.01 to 10
CN(C)c1cc(Cl)cc(-c2nn3c(c2C(N)=O)CN(C(=O)Nc2ccc(C#N)c(C(F)(F)F)c2)CC3)c1 [Compound 266, 2-(3-Chloro-5-(dimethylamino)phenyl)-N^5-(4-cyano-3-(trifluoromethyl)phenyl)-6,7-dihydropyrazolo[1,5-a]pyrazine-3,5(H)-dicarboxamide]	0.01 to 10	0.01 to 10
NC(=O)c1c(-c2ccc(F)c(Cl)c2)nn2c1CN(C(=O)Nc1ccc(OC(F)(F)F)cc1)CC2 [Compound 181, 2-(3-Chloro-4-fluorophenyl)-N^5-(4-(trifluoromethoxy)phenyl)-6,7-dihydropyrazolo[1,5-a] pyrazine-3,5(4H)-dicarboxamide]	0.01 to 10	0.01 to 10
NC(=O)c1c(-c2cc(Cl)c(F)c(Cl)c2)nn2c1CN(C(=O)Nc1ccc(C(F)(F)F)cc1)CC2 [Compound 262, 2-(3,5-Dichloro-4-fluorophenyl)-N^5-(4-(trifluoromethyl)phenyl)-6,7-dihydropyrazolo[1,5-a]pyrazine-3,5(4H)-dicarboxamide]	0.01 to 10	0.01 to 10
NC(=O)c1c(-c2ccc(Cl)c(Cl)c2)nn2c1CN(C(=O)Nc1cc(Cl)cc(Cl)c1)CC2 [Compound 206]	0.01 to 10	0.01 to 10
N#Cc1ccc(NC(=O)N2CCn3nc(-c4ccc(F)c(Cl)c4)c(C(N)=O)c3C2)nc1 [Compound 193, 2-(3-Chloro-4-fluorophenyl)-N^5-(5-cyanopyridin-2-yl)-6,7-dihydropyrazolo[1,5-a] pyrazine-3,5(4H)-dicarboxamide]	0.01 to 10	0.01 to 10
Cc1ccc(-c2nn3c(c2C(N)=O)CN(C(=O)Nc2ccc4ncsc4c2)CC3)cc1Cl [Compound 254, N^5-(Benzo[d]thiazol-6-yl)-2-(3-chloro-4-methylphenyl)-6,7-dihydropyrazolo[1,5-a] pyrazine-3,5(4H)-dicarboxamide]	0.01 to 10	0.01 to 10
CC1Cn2nc(-c3ccc(F)c(Cl)c3)c(C(N)=O)c2CN1C(=O)Nc1ccc(C#N)cc1 (single isomer, unassigned) [Compound 329, 2-(3-Chloro-4-fluorophenyl)-N^5-(4-cyanophenyl)-6-methyl-6,7-dihydropyrazolo[1,5-a]pyrazine-3,5(4H)-dicarboxamide]	0.01 to 10	0.01 to 10
NC(=O)c1c(-c2cccc(F)c2)nn2c1CN(C(=O)Nc1cc(F)c(F)c(F)c1)CC2 [Compound 70, 2-(3-Fluorophenyl)-N^5-(3,4,5-trifluorophenyl)-6,7-dihydropyrazolo[1,5-a]pyrazine-3,5(4H)-dicarboxamide]	0.01 to 10	0.01 to 10
COc1ccc(NC(=O)N2CCn3nc(-c4cccc(F)c4)c(C(N)=O)c3C2)cc1 [Compound 51, 2-(3-Fluorophenyl)-N^5-(4-methoxyphenyl)-6,7-dihydropyrazolo[1,5-a]pyrazine-3,5(4H)-dicarboxamide]	0.01 to 10	0.01 to 10
CC(C)(C)NC(=O)N1CCn2nc(-c3cncc(Cl)c3)c(C(N)=O)c2C1 [Compound 148, N^5-(tert-Butyl)-2-(5-chloropyridin-3-yl)-6,7-dihydropyrazolo[1,5-a]pyrazine-3,5(4H)-dicarboxamide]	0.01 to 10	0.01 to 10
